In PubChem BioAssay (NCI):
Values joined by “and” are separate entries in the source; they are usually repeats but may differ in a detail not shown here. Identical values can stand only once.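 All cell lines were grown in 96-well plates and treated with compound for 48 hours. Definition used: TGI = concentration required for complete inhibition of growth.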 Where a SMILES comes first, the peptide text is derived from it. [ ]: non-standard residue; d: D form. The star is where a group is joined. ξ: configuration not given here. X3 = COc1ccc(C(N*)c2ccc(OC)cc2)cc1; NMeF = CN[C@@H](Cc1ccccc1)C(=O)O; NMeD = CN[C@@H](CC(=O)O)C(=O)O; NMeV = CN[C@H](C(=O)O)C(C)C; ξNMeV = CNC(C(=O)O)C(C)C; Boc = CC(C)(C)OC(=O)*; ξNMeA = CNC(C)C(=O)O; ξV = CC(C)C(N)C(=O)O

What was measured:
Assay in all cases: inhibition of tumour cell growth, NCI panel, 48 h
MDA-N = test system: MDA-N
DLD-1 colon = test system: DLD-1 colon
LXFL 529 NSCLC = test system: LXFL 529 NSCLC
KM20L2 colon = test system: KM20L2 colon
XF 498 CNS = test system: XF 498 CNS
DMS 114 small cell lung = test system: DMS 114 small cell lung
RXF-631 renal = test system: RXF-631 renal
SN12K1 renal = test system: SN12K1 renal

| Compound | TGI (MDA-N) | TGI (DLD-1 colon) [µM] | TGI (LXFL 529 NSCLC) [µM] | TGI (KM20L2 colon) [µM] | TGI (XF 498 CNS) [µM] | TGI (DMS 114 small cell lung) [µM] | TGI (RXF-631 renal) [µM] | TGI (SN12K1 renal) [µM] |
| --- | --- | --- | --- | --- | --- | --- | --- | --- |
| O=C(O)c1ccc2c(c1C(=O)O)C(=O)OC2(c1ccc(O)cc1)c1ccc(O)cc1 | > 100 µM |  |  |  |  |  |  |  |
| CCCCCC[C@@H]1CCC2C(CO)[C@@H](O)CC[C@@H]2C1 (stereo not given in full) |  | 34.6 | 32.6 | 33.7 | 39.8 | 37.5 |  |  |
| C=CC[C@H](C[C@H](C[C@H](C[C@H](C[C@H](C[C@H](C[C@H](C[C@H](C[C@H](C[C@H](CCCCC)OC)OC)OC)OC)OC)OC)OC)OC)OC)OC |  | > 100 |  | > 100 | > 100 | > 100 |  |  |
| CC1=C2C(=C[C@@](C)(CO)[C@@H]2O)C(=O)[C@](C)(O)C12CC2 | 0.0272 µM and 0.0105 µM |  |  |  |  |  |  |  |
| C/C(=N/Nc1ccc([N+](=O)[O-])cc1[N+](=O)[O-])C(CC(C(=O)NCc1ccccc1)/C(C)=N\Nc1ccc([N+](=O)[O-])cc1[N+](=O)[O-])C(=O)NCc1ccccc1 (stereo not given) |  | 29.4 | 23.6 | 37.5 |  | 23.8 | 20 |  |
| O=C1C=CC(=O)c2nc3c(cc21)CCC3 |  | 36 | 29 |  | 32.9 | 42.5 | > 100 |  |
| CC1(C)OC1COc1c2occc2cc2ccc(=O)oc12 (stereo not given) | > 100 µM |  |  |  |  |  |  |  |
| O=C(O)c1nc2nc(Cl)c(Cl)nc2[nH]1 | > 100 µM |  |  |  |  |  |  |  |
| O=C(/C=C/c1ccc(O)cc1)c1ccc(O)cc1 | > 88.4 µM | 36.9 |  | 47 | 34.1 | 43.8 |  |  |
| CN(C)CC1CC/C(=C\c2ccc(O)cc2)C1=O (stereo not given) | 6.8 µM | 6.27 | 3.45 | 22.1 | 11.3 | 23.5 |  | 3.4 |
| C=C(C)CCOC(c1ccccc1)(c1ccccc1)c1ccccc1 |  | > 100 | > 100 | > 100 | 90.3 |  | > 100 |  |
| O=C(/C=C/c1ccc([N+](=O)[O-])cc1)c1ccc(NCc2nc3ccccc3[nH]2)cc1 |  | 15.7 | 8.61 | 15.3 | 20.2 | 7.44 | 19.7 |  |
| N#C/C(=C\c1cccc(Cl)c1Cl)c1ccccc1 |  | > 100 | > 100 | > 100 | > 57.4 | > 73.1 | > 100 |  |
| COc1cc(C2CC(C)(O)Oc3cc4c(cc32)OCO4)cc(OC)c1OC (stereo not given) | 0.43 µM |  |  |  |  |  |  |  |
| O=C1CCC2(c3ccc(Cl)cc3)Nc3ccncc3N12 (stereo not given) | > 10 µM |  |  |  |  |  |  |  |
| Cc1cc2c(C)[nH]nc2c(C(=O)O)c1C |  | > 100 | > 100 | > 100 | > 100 | > 100 |  |  |
| COc1ccc(C)cc1-c1cc(Sc2ccccc2)c(-c2cc(C)ccc2OC)o1 |  | > 31.6 | > 31.6 | > 31.6 | > 100 | > 31.6 | > 31.6 |  |
| CC(C)(C)c1cc2c(O)c3cccc4c(=O)c5cccc6c5-c(c34)c2c(c1)c6=O |  | > 100 | > 100 | > 100 | 88.5 |  |  |  |
| O=S(=O)(c1ccccc1)N1CCN(S(=O)(=O)c2ccccc2)c2ccccc21 | > 100 µM |  |  |  |  |  |  |  |
| O=C(Nc1ccccc1-c1nn(C(=S)Nc2ccccc2)c(=S)n(C(=S)Nc2ccccc2)c1=O)C(F)(F)F |  | > 100 | 54 | > 100 | 61.5 | 38.9 |  |  |
| CN(C)CCn1c2c3ccccc3ccc2c2oc(=O)c3ccccc3c21 |  | > 100 | 17.2 | 33.8 | 30.1 |  | 31.5 |  |

| Compound | TGI (MDA-N) | TGI (DLD-1 colon) [µM] | TGI (LXFL 529 NSCLC) [µM] | TGI (KM20L2 colon) [µM] | TGI (XF 498 CNS) [µM] | TGI (DMS 114 small cell lung) [µM] | TGI (RXF-631 renal) [µM] | TGI (SN12K1 renal) [µM] |
| --- | --- | --- | --- | --- | --- | --- | --- | --- |
| CCOC(=O)C1=C(C(=O)OCC)C2c3ccccc3C=CN2C(C(=O)OCC)=C(SC)S1 (stereo not given) |  | > 100 | > 100 | > 100 |  | > 100 |  |  |
| c1ccc(NCn2cnc3ccccc32)cc1 |  | > 100 | > 100 | > 100 | > 100 | > 100 | > 100 |  |
| O=S(=O)(N/N=C/c1cccc(/C=N/NS(=O)(=O)c2ccccc2)c1)c1ccccc1 |  | > 100 | > 100 | > 100 |  | > 100 | > 100 |  |
| CC(C)=CCC(O)C1=CC(=O)c2c(O)ccc(O)c2C1=O (stereo not given) | 2.3 µM |  |  |  |  |  |  |  |
| COC(=O)C(CCCN1C(=O)c2ccccc2C1=O)C(=O)OC |  | > 100 | > 100 | > 100 | > 100 | > 100 |  |  |
| O=[N+]([O-])c1ccc(Cl)cc1N/N=C/c1ccnc2ccccc12 | > 100 µM |  |  |  |  |  |  |  |
| NC(=O)c1ccccc1NC(=O)C(=O)C(C(=O)c1ccc(Cl)c(Cl)c1)C1OC(=O)c2ccccc21 (stereo not given) |  | > 100 | > 100 | > 100 | > 100 |  |  |  |
| COc1ccc(C(NC(=O)C[C@@H](C(=O)N(C)C(C)C(=O)O)N(C)C(=O)[C@@H]2CCCN2C(=O)[C@H](C(C)C)N(C)C(=O)C(C(C)C)N(C)C(=O)[C@H](Cc2ccccc2)N(C)C(=O)C(NC(=O)OC(C)(C)C)C(C)C)c2ccc(OC)cc2)cc1 (stereo not given in full) (Boc-[ξV][NMeF][ξNMeV][NMeV]P[NMeD](X3)[ξNMeA]-OH) | 32.7 µM | 32.1 | 27.9 | 37.6 | 29.5 | 33.4 |  |  |
| O=C1CN(c2cccc(Cl)c2)C(=O)CN1CCN1CC(=O)N(c2cccc(Cl)c2)CC1=O | > 100 µM |  |  |  |  |  |  |  |
| Cc1ccc(/C=C/C(=O)c2cccc3ccccc23)cc1 |  |  | 25.3 | 31 | 28.7 |  |  |  |
| CC(=O)OCCOCNC(=S)N/N=C(\C)c1cnccn1 |  | > 100 | > 100 | 81.3 | > 100 | 51.4 |  |  |
| O=c1c(-c2ccccc2)c2oc(c1-c1ccccc1)CSCc1cccc(c1)CSC2 |  | > 100 | > 100 | > 100 |  | > 100 |  |  |
| C/C(CCn1[nH]c(=O)ccc1=O)=N\NC(=O)C(=O)NN |  | > 100 | > 100 | > 100 | > 100 |  | > 100 |  |
| COc1nc(NC2OC(COC(C)=O)C(OC(C)=O)C(OC(C)=O)C2OC(C)=O)c2c(OC(C)=O)cc(=O)oc2n1 (stereo not given) |  | > 100 | > 100 | > 100 | > 100 | > 100 |  |  |
| Cc1ccc(/C=C/C(=O)CCN(C)C)cc1 |  | 33.7 | 34.2 | 37.2 | 28.5 | 32.5 |  |  |
| CC(=O)NNc1nc(C)c(C(=O)/C=C/c2ccc(NC(C)=O)cc2)s1 |  | > 100 |  | > 100 |  |  | > 100 |  |
| CC(=O)O/N=C(/C)c1ccccc1O |  | > 100 | > 100 | > 100 | > 100 | > 100 |  |  |
| Oc1[nH]c2ccccc2c1N=Nc1nc(-c2ccc(Br)cc2)cs1 | > 100 µM |  |  |  |  |  |  |  |
| S=c1sc2c(n1-c1ccccc1)NC=NC2S (stereo not given) |  | > 100 | > 100 | > 100 | > 100 | > 100 |  |  |
| CC(=O)CC(OC(C)=O)C1=CCC2C(CC1C)OC(=O)C2C (stereo not given) | > 100 µM |  |  |  |  |  |  |  |
